Measurements reported in ChEMBL document CHEMBL1201862, “PubChem BioAssay data set” (2004).
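Cells were grown in 96-well plates and exposed to each compound for 48 hours at five concentrations; endpoints were interpolated linearly between bracketing concentrations, or set to the highest concentration if not reached. GI50 marks 50% less growth.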 Active and inactive are the calls of the source. Rule as the data show it: active = GI50 up to about 1.1 µM and inactive = higher.

What was measured:
Experiment in all cases: growth of human tumour cells (NCI), 48 h
[1] = tested on: SK-OV-3
[2] = tested on: HOP-92
[3] = tested on: CCRF-CEM
[4] = tested on: SK-MEL-28
[5] = tested on: MOLT-4
[6] = tested on: HCT-15
[7] = tested on: RXF 393
[8] = tested on: OVCAR-8
[9] = tested on: ACHN
[10] = tested on: KM-20L2
[11] = tested on: SK-MEL-5
[12] = tested on: SK-MEL-2
[13] = tested on: Hs-578T
[14] = tested on: PC-3
[15] = tested on: SNB-19
[16] = tested on: HT-29
[17] = tested on: HCT-116
[18] = tested on: NCI-H226
[19] = tested on: DLD-1
[20] = tested on: M19-MEL
[21] = tested on: SF-295
[22] = tested on: Malme-3M
[23] = tested on: HOP-18
[24] = tested on: HL-60
[25] = tested on: DU-145
[26] = tested on: SF-539
[27] = tested on: MCF7
[28] = tested on: XF498
[29] = tested on: SF-268
[30] = tested on: EKVX
[31] = tested on: RXF 631
[32] = tested on: SR
[33] = tested on: MDA-N
[34] = tested on: UO-31
[35] = tested on: UACC-62
[36] = tested on: BT-549
[37] = tested on: OVCAR-4
[38] = tested on: K562
[39] = tested on: NCI-H522
[40] = tested on: SNB-75
[41] = tested on: HOP-62
[42] = tested on: U-251
[43] = tested on: IGROV-1
[44] = tested on: HCC 2998
[45] = tested on: NCI-H23
[46] = tested on: A549
[47] = tested on: SN12C
[48] = tested on: TK-10
[49] = tested on: KM12
[50] = tested on: CAKI-1
[51] = tested on: UACC-257
[52] = tested on: MDA-MB-231
[53] = tested on: M14
[54] = tested on: SW-620
[55] = tested on: OVCAR-3
[56] = tested on: T47D
[57] = tested on: OVCAR-5
[58] = tested on: 786-0
[59] = tested on: SNB-78
[60] = tested on: A498
[61] = tested on: COLO 205
[62] = tested on: LOX IMVI
[63] = tested on: NCI-H460
[64] = tested on: DMS-114
[65] = tested on: DMS-273
[66] = tested on: LXFL 529
[67] = tested on: RPMI-8226

## O=C1/C(=C/c2ccccc2)CN(C(=O)OCc2ccccc2)C/C1=C\c1ccccc1
[1]
  GI50: 24400 nM (inactive)
[2]
  GI50: > 69500 nM (inactive)
[3]
  GI50: 2080 nM (inactive)
[4]
  GI50: 11500 nM (inactive)
[5]
  GI50: 2760 nM (inactive)
[6]
  GI50: 10900 nM
[7]
  GI50: 13400 nM (inactive)
[8]
  GI50: 13100 nM (inactive)
[9]
  GI50: 12500 nM (inactive)
[10]
  GI50: 11100 nM (inactive)
[11]
  GI50: 16800 nM (inactive)
[12]
  GI50: 17900 nM (inactive)
[13]
  GI50: 2470 nM (inactive)
[14]
  GI50: 15000 nM (inactive)
[15]
  GI50: 26600 nM (inactive)
[16]
  GI50: 7690 nM (inactive)
[17]
  GI50: 345 nM (active)
[18]
  GI50: 26200 nM (inactive)
[19]
  GI50: 3630 nM (inactive)
[20]
  GI50: 5870 nM (inactive)
[21]
  GI50: 12800 nM (inactive)
[22]
  GI50: 30400 nM (inactive)
[23]
  GI50: > 10000 nM (inactive)
[24]
  GI50: 1790 nM (inactive)
[25]
  GI50: 54800 nM (inactive)
[26]
  GI50: 18300 nM (inactive)
[27]
  GI50: 6430 nM (inactive)
[28]
  GI50: 16600 nM (inactive)
[29]
  GI50: 13800 nM (inactive)
[30]
  GI50: 20700 nM (inactive)
[31]
  GI50: 16900 nM (inactive)
[32]
  GI50: 1530 nM (inactive)
[33]
  GI50: 3060 nM (inactive)
[34]
  GI50: 14600 nM (inactive)
[35]
  GI50: 12200 nM (inactive)
[36]
  GI50: 13200 nM (inactive)
[37]
  GI50: 11600 nM (inactive)
[38]
  GI50: 1880 nM (inactive)
[39]
  GI50: 6760 nM (inactive)
[40]
  GI50: > 31600 nM (inactive)
[41]
  GI50: 32100 nM (inactive)
[42]
  GI50: 4510 nM (inactive)
[43]
  GI50: 14100 nM (inactive)
[44]
  GI50: 7060 nM (inactive)
[45]
  GI50: 15600 nM (inactive)
[46]
  GI50: 28100 nM (inactive)
[47]
  GI50: 13800 nM (inactive)
[48]
  GI50: 27500 nM (inactive)
[49]
  GI50: 5470 nM (inactive)
[50]
  GI50: 18100 nM (inactive)
[51]
  GI50: 16000 nM (inactive)
[52]
  GI50: 17800 nM (inactive)
[53]
  GI50: 8070 nM (inactive)
[54]
  GI50: 1810 nM (inactive)
[55]
  GI50: 1680 nM (inactive)
[56]
  GI50: 41400 nM (inactive)
[57]
  GI50: 17400 nM (inactive)
[58]
  GI50: 11500 nM (inactive)
[59]
  GI50: 14800 nM (inactive)
[60]
  GI50: 27400 nM (inactive)
[61]
  GI50: 16100 nM (inactive)
[62]
  GI50: 4760 nM (inactive)
[63]
  GI50: 21400 nM (inactive)
[64]
  GI50: 11200 nM (inactive)
[65]
  GI50: 5000 nM (inactive)

## CCC1=C(C[C@H]2NCCc3cc(OC)c(OC)cc32)C[C@H]2c3cc(OC)c(OC)cc3CCN2C1
[1]
  GI50: 63.7 nM (active)
[2]
  GI50: 20.4 nM (active)
[4]
  GI50: 36.5 nM (active)
[5]
  GI50: 12.8 nM (active)
[6]
  GI50: 258 nM
[7]
  GI50: 25.4 nM (active)
[8]
  GI50: 27.2 nM (active)
[9]
  GI50: 38.8 nM (active)
[10]
  GI50: 28.8 nM (active)
[11]
  GI50: 23.4 nM (active)
[12]
  GI50: 24.8 nM (active)
[16]
  GI50: 27.2 nM (active)
[17]
  GI50: 17.3 nM (active)
[19]
  GI50: 29.6 nM (active)
[20]
  GI50: 25.1 nM (active)
[21]
  GI50: 33.1 nM (active)
[22]
  GI50: 136 nM (active)
[23]
  GI50: 667 nM (active)
[24]
  GI50: 24.7 nM (active)
[26]
  GI50: 32.6 nM (active)
[29]
  GI50: 35.6 nM (active)
[30]
  GI50: 36.2 nM (active)
[31]
  GI50: 41.2 nM (active)
[32]
  GI50: 10.1 nM (active)
[34]
  GI50: 316 nM (active)
[66]
  GI50: 31.6 nM (active)
[35]
  GI50: 33.6 nM (active)
[37]
  GI50: 14.3 nM (active)
[39]
  GI50: 25.7 nM (active)
[40]
  GI50: 33.2 nM (active)
[41]
  GI50: 28.6 nM (active)
[42]
  GI50: 31 nM (active)
[43]
  GI50: 44.5 nM (active)
[44]
  GI50: 29.3 nM (active)
[45]
  GI50: 19.1 nM (active)
[46]
  GI50: 31.7 nM (active)
[47]
  GI50: 32.6 nM (active)
[50]
  GI50: 31.2 nM (active)
[51]
  GI50: 47.3 nM (active)
[53]
  GI50: 23.5 nM (active)
[54]
  GI50: 28 nM (active)
[55]
  GI50: 38.7 nM (active)
[67]
  GI50: 21 nM (active)
[57]
  GI50: 52.1 nM (active)
[58]
  GI50: 26.1 nM (active)
[59]
  GI50: 38.8 nM (active)
[60]
  GI50: 18.1 nM (active)
[63]
  GI50: 26.1 nM (active)
[64]
  GI50: 16.6 nM (active)
[65]
  GI50: 27.4 nM (active)
